According to patent US10906904B2, “ADO-resistant cysteamine analogs and uses thereof” (HORIZON ORPHAN LLC, priority 2015, dated 2021):
Where two headings read alike, the source gives them in different places.

How the values were obtained:
Cystine reactivity assay = settings: 30° C., percentage of 3 mM cysteamine
Description: Cystine reactivity was assessed by incubating 3 mM test compound with 100 nM BODIPY® FL L-Cystine (Life Tech.) at 30° C., pH 7.4 in phosphate buffer. […] Compound cystine reactivity was expressed as a percentage of that of 3 mM cysteamine.
Under resting conditions, the inherent fluorescence of BODIPY® FL L-cystine was very low due to the spatial proximity of the two BODIPY molecules causing quenching. Under chemical reaction (disruption of the S—S bond), the spatial distance was increased, the quenching lost, and measured fluorescence increased. Time (minutes) vs. fluorescence (relative fluorescence units—RFU) was plotted and linear regression analysis was performed to generate a slope value corresponding to the reaction rate in RFU/min and an R2 value.

human recombinant ADO = biological target: T1, human recombinant ADO (Homo sapiens, UniProt Q96SZ5); format: in vitro ADME; settings: for ADO Metabolism Assay (%) Mean Value: human
T1 sequence (Q96SZ5 1-270): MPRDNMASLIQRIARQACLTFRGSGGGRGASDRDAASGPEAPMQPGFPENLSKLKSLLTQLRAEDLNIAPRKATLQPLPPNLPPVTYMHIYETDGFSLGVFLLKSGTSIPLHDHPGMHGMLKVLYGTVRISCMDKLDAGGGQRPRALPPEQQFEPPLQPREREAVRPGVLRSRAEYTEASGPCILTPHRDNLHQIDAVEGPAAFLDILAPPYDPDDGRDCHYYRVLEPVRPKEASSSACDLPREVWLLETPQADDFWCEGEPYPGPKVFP
Description: The rate of ADO metabolism was determined by incubating 15 mM test compound with 60 μg/ml human recombinant ADO and 20 nM MitoXpress® O2-sensitive fluorescent probe (Luxcel) at 37° C. in assay buffer/salt in a sealed assay chamber. The initial rate of fluorescence (excitation λ380 nm and emission λ650 nm) increase was used to measure ADO-dependent oxygen depletion activity. The ability of ADO to metabolize compounds and concomitantly consume oxygen was expressed relative to that of 15 mM cysteamine.

[1] = system: cystinotic human fibroblasts; assay: Cystine depletion assay; format: cell-based; settings: for Emax: Homo sapiens, Fibroblast, 1 h; for cystine depletion levels (in words): compared to cysteamine; for Cystine depletion: compound at 50 μM or 100 μM, Tables 1-3
Description: The ability of test compounds to deplete cystine from cystinotic human fibroblasts (Coriell) was determined by incubating compounds with cells for 60 min at 37° C., 95% (v/v) air/5% (v/v) CO2 in Minimal Essential Media Eagle. Treated cell samples were subsequently harvested, then homogenized to ensure plasma and lysosomal membrane disruption. Protein was removed by acid precipitation and cystine in the supernatant measured using LC-MS/MS and HILIC chromatography. Protein levels were determined and cystine levels reported as nM per mg/ml protein. Cystine levels after test compound treatment were expressed as a percentage of that of untreated control cells.
Compounds were assayed at a concentration of 50 μM or 100 μM according to the general methods described above.
Cystine depletion levels for the compounds are expressed in Table 4 as a percent relative to the cystine depletion achieved by cysteamine (c.f. cysteamine 100%) at a similar concentration.
Cystine depletion levels for each of the compounds in Table 5 are expressed as a percent relative to the cystine depletion achieved by cysteamine (c.f. cysteamine 100%) at a similar concentration.

St-HdhQ^111/111 cells = assay: Glutamate-induced neuronal excitotoxicity assay; format: cell-based; settings: STHdhQ111, 6 mM L-glutamate 24 hours, % of effect of 100 μM cysteamine; for viability at 10 µM: read-out: HdhQ^111/111 cell % survival (mean ± STD) Test Conc. 10 μM; for viability at 100 µM: read-out: HdhQ^111/111 cell % survival (mean ± STD) Test Conc. 100 μM
Description: The ability of test compounds to inhibit glutamate-induced excitotoxicity (neuroprotection) in St-HdhQ^111/111 cells was determined by incubating compounds with cells for 60 min at 33° C., 95% (v:v) air/5% (v:v) CO2 in Dulbecco's Modified Eagle Media. Following this, excitotoxicity was induced by the addition of 6 mM L-glutamate for 24 hours. Cell viability was assessed by measuring ATP levels using a luminescent-based CellTitre Glo assay (Promega). Compound neuroprotection (% cell survival) was expressed as a % of the effect recorded with 100 μM cysteamine (denoted as 100% cell survival).

[2] = Table 5, relative to cystine depletion by cysteamine (100%) at a similar concentration, read-out: Cystine Depletion (%) Mean Value
[3] = Table 4, relative to cystine depletion by cysteamine (100%) at a similar concentration, read-out: Cystine Depletion (%)

**Q.** Which “Cystine Reactivity Assay (30° C.) (%) Mean Value” (Cystine reactivity assay; Table 5) does the source give for CNC1CC(S)C1 (stereo not shown) [Compound 149608] here?
**A.** The value was less than 50%.

**Q.** And the “ADO Metabolism Assay (%) Mean Value” (human recombinant ADO; 15 mM)?
**A.** Its value is less than 25%.

**Q.** And the Emax [1, 2]?
**A.** The Emax was 55%.

**Q.** With O=c1[nH][se]c2ccccc12 [Compound 145565] as the compound, how does the Emax [1, 2] read?
**A.** The Emax was 31%.

**Q.** What does the source list for N[C@@H]1CCCC[C@H]1S [Compound 42692]?
**A.** Cystine Reactivity Assay (30° C.) (%) Mean Value (Cystine reactivity assay; Table 4): >90%; Emax [1, 3]: 100%; viability at 10 µM (St-HdhQ^111/111 cells): 82 ± 4%; viability at 100 µM (St-HdhQ^111/111 cells): 71 ± 5%

**Q.** Which Emax [1, 3] does the source give for CC1(C)CNCCC1S (stereo not shown) [Compound 42609] here?
**A.** The Emax was 17%.

**Q.** With CSC1(C)CCNCC1 [Compound 145691] as the compound, how does the Emax [1, 2] read?
**A.** Its Emax is 0%.

**Q.** For Cn1cc[nH]c1=S [Compound 1176], which “Cystine Reactivity Assay (30° C.) (%) Mean Value” (Cystine reactivity assay; Table 5) is on record?
**A.** The value was less than 50%.

**Q.** What about the “ADO Metabolism Assay (%) Mean Value” (human recombinant ADO; 15 mM) of the same compound?
**A.** The value was less than 25%.

**Q.** And the Emax [1, 2]?
**A.** Its Emax is 10%.

**Q.** With CN[C@H]1C[C@H](S)C1 [Compound 149609] as the compound, how does the “Cystine Reactivity Assay (30° C.) (%) Mean Value” (Cystine reactivity assay; Table 5) read?
**A.** Its value is less than 50%.

**Q.** And the “ADO Metabolism Assay (%) Mean Value” (human recombinant ADO; 15 mM)?
**A.** The value was less than 25%.

**Q.** What about the Emax [1, 2] of the same compound?
**A.** The Emax was 50%.

**Q.** With CN1C2CCC1CC(SSC1CC3CCC(C1)N3C)C2 (stereo not shown) [Compound 42344] as the compound, how does the Emax [1, 3] read?
**A.** Its Emax is 38%.

**Q.** For NC1(CS)CC1 [Compound 41448], which “ADO Metabolism Assay (%) Mean Value” (human recombinant ADO; 15 mM) is on record?
**A.** Its value is 25-75%.

**Q.** And the Emax [1, 3]?
**A.** Its Emax is 55%.

**Q.** Which Emax [1, 3] does the source give for CC(C)(N)CS [Compound 42097] here?
**A.** The Emax was 97%.

**Q.** What does the source list for SC1CCCNC1 (stereo not shown) [Compound 42208]?
**A.** Cystine Reactivity Assay (30° C.) (%) Mean Value (Cystine reactivity assay; Table 4): >90%; ADO Metabolism Assay (%) Mean Value (human recombinant ADO; 15 mM): <25%; Emax [1, 3]: 102%

**Q.** Which Emax [1, 3] does the source give for CN1CC[C@H](SS[C@H]2CCN(C)C2)C1 [Compound 42343] here?
**A.** Its Emax is 84%.

**Q.** Which “Cystine Reactivity Assay (30° C.) (%) Mean Value” (Cystine reactivity assay; Table 5) does the source give for C[C@H](CS)C(=O)N1CCC[C@H]1C(=O)O [Compound 653] here?
**A.** Its value is less than 50%.

**Q.** And the “ADO Metabolism Assay (%) Mean Value” (human recombinant ADO)?
**A.** The value was less than 25%.

**Q.** And the Emax [1, 2]?
**A.** The Emax was 23%.

**Q.** For CC1(S)CCNC1 (stereo not shown) [Compound 150731], which “Cystine Reactivity Assay (30° C.) (%) Mean Value” (Cystine reactivity assay; Table 5) is on record?
**A.** The value was greater than 90%.

**Q.** And the Emax [1, 2]?
**A.** The Emax was 58%.

**Q.** With FC1(F)CN[C@@H](CS)C1 [Compound 149607] as the compound, how does the “Cystine Reactivity Assay (30° C.) (%) Mean Value” (Cystine reactivity assay; Table 5) read?
**A.** The value was greater than 90%.

**Q.** And the Emax [1, 2]?
**A.** The Emax was 17%.

**Q.** What about the viability at 10 µM (St-HdhQ^111/111 cells) of the same compound?
**A.** Its viability at 10 µM is 32 ± 9%.

**Q.** And the viability at 100 µM (St-HdhQ^111/111 cells)?
**A.** The viability at 100 µM was 98 ± 12%.

**Q.** With Oc1ccc2ccccc2c1SSc1c(O)ccc2ccccc12 [Compound 2415] as the compound, how does the Emax [1, 2] read?
**A.** The Emax was 14%.

**Q.** With C[C@H]1C[C@@H](S)CCN1 [Compound 42618] as the compound, how does the Emax [1, 3] read?
**A.** The Emax was 49%.

**Q.** Which “Cystine Reactivity Assay (30° C.) (%) Mean Value” (Cystine reactivity assay; Table 4) does the source give for CCN1CCC(S)CC1 [Compound 42391] here?
**A.** Its value is greater than 90%.

**Q.** What about the Emax [1, 3] of the same compound?
**A.** The Emax was 60%.

**Q.** For CC(C)(N)CS [Compound 3b], which “cystine depletion levels (in words)” value [1] is on record?
**A.** The value was “similar”.

**Q.** What about the Cystine depletion [1] of the same compound?
**A.** Its Cystine depletion is 97%.

**Q.** Which Emax [1, 3] does the source give for C[C@H]1CCNC[C@@H]1S [Compound 42612] here?
**A.** The Emax was 98%.

**Q.** With N[C@@H]1CCCC[C@@H]1S [Compound 42610] as the compound, how does the “Cystine Reactivity Assay (30° C.) (%) Mean Value” (Cystine reactivity assay; Table 4) read?
**A.** Its value is greater than 90%.

**Q.** And the Emax [1, 3]?
**A.** The Emax was 91%.

**Q.** What about the viability at 10 µM (St-HdhQ^111/111 cells) of the same compound?
**A.** The viability at 10 µM was 19 ± 6%.

**Q.** What about the viability at 100 µM (St-HdhQ^111/111 cells) of the same compound?
**A.** Its viability at 100 µM is 77 ± 8%.

**Q.** For N[C@H]1C[C@@H](SS[C@H]2C[C@@H](N)C2)C1 [Compound 151270], which Emax [1, 2] is on record?
**A.** The Emax was 3%.

**Q.** For N[C@H]1C[C@H](S)C1 [Compound 142460], which “Cystine Reactivity Assay (30° C.) (%) Mean Value” (Cystine reactivity assay; Table 5) is on record?
**A.** The value was 50-90%.

**Q.** What about the Emax [1, 2] of the same compound?
**A.** Its Emax is 78%.

**Q.** Which results are given for CNCCS [Compound 1a]?
**A.** metabolism by ADO compared to cysteamine (in words) (human recombinant ADO): significantly reduced metabolism by ADO compared to cysteamine; cystine depletion levels (in words) [1]: slightly decreased cystine depletion levels; Cystine depletion [1]: 85%; Cystine depletion ( ) = disulfide efficacy ([1]; disulfide of the compound, 50 μM or 100 μM): (94%)

**Q.** With Nc1nc2[nH]cnc2c(=S)[nH]1 [Compound 1141] as the compound, how does the “Cystine Reactivity Assay (30° C.) (%) Mean Value” (Cystine reactivity assay; Table 5) read?
**A.** Its value is less than 50%.

**Q.** And the Emax [1, 2]?
**A.** Its Emax is 0%.

**Q.** Which “Cystine Depletion (%)” value ([1]; Table 4, relative to cystine depletion by cysteamine (100%) at a similar concentration) does the source give for CNCCS [Compound 18781] here?
**A.** Its value is 92%.

**Q.** For NC1CCC(S)C1 (stereo not shown) [Compound 42691], which “Cystine Reactivity Assay (30° C.) (%) Mean Value” (Cystine reactivity assay; Table 4) is on record?
**A.** Its value is 50-90%.
